This note sets out measurements from patent US8658668B2, “PI3 kinase/mTOR dual inhibitor” (Eli Lilly and Company, priority 2011, dated 2014).

Data set [1] concerns HNXF 536 human tumor xenograft cells. Briefly: Oncotest tumor clonogenic assay, HNXF 536. Format: cell-based. The settings on record: colony formation, Head and Neck HNXF 536, squamous epithelium carcinoma, wd, read-out: Absolute IC50.
Data set [2] can be described thus: Pharmacokinetic properties in dogs. Conditions: for AUC: both sexes, beagle, dog, plasma, oral gavage, HEC suspension. Format: in vivo, dog. As to the method: The range of administered doses is between 1 and 12 mg/kg in an HEC suspension.
Blood samples are collected into tubes containing potassium ethylenediaminetetraacetic acid from each dog at 0 (pre-dose), 0.5, 1, 2, 4, 8, and 24 hours post dose. Some studies also include samples collected at 0.25 hr and 12 hr time points. These samples are centrifuged to obtain plasma, which is subsequently frozen prior to analysis. […] The standard curves range from 1 to 5000 ng/mL. Plasma concentrations above the upper limit of quantitation are determined by dilution.

In data set [3] the test system is CXF 280 human tumor xenograft cells. Briefly: Oncotest tumor clonogenic assay, CXF 280. Format: cell-based. The settings on record: colony formation, Colon CXF 280, adeno carcinoma, pd, read-out: Absolute IC50.
The test system of data set [4] is MEXF 989 human tumor xenograft cells. The data set can be described thus: Oncotest tumor clonogenic assay, MEXF 989. Format: cell-based. Conditions: colony formation, Melanoma MEXF 989, amelanotic melanoma, md, read-out: Absolute IC50.
Data set [5] deals with PRXF DU145 human tumor xenograft cells. Briefly: Oncotest tumor clonogenic assay, PRXF DU145. In kind it is cell-based. Conditions: DU-145, colony formation, Prostate PRXF DU145, adeno carcinoma, ud, read-out: Absolute IC50.
For a further data set, the target named is PI3Ka (Homo sapiens, UniProt P42336). Briefly: PI3Ka Scintillation Proximity Assay. In kind it is biochemical. Conditions: 10 μM ATP; n=2; read-out: absolute IC50. As to the method: Use the PI3Ka Scintillation Proximity Assay (PI3Ka SPA) to determine compound IC50 values against PI3Ka kinase. This assay assesses the activity PI3Ka in the presence of compound inhibitors by measuring incorporation of γ-P^33-ATP into phosphatidylinositol (4,5)bisphosphate (PIP2). Perform the kinase reactions in 40 μL reaction volumes in 96-well half-area flat bottom white with clear bottom polystyrene plates. Add PI3Ka to start the reaction. Final reaction conditions are 43.75 mM 2,2-bis(hydroxymethyl)-2,2′,2″-nitrilotriethanol (Bis-Tris) pH 7.0, 306 mM sodium chloride (NaCl), 1.76 mM polyethylene glycol octylphenyl ether (Triton® X-100), 10 μM adenosine triphosphate (ATP), 2.9 mM magnesium chloride (MgCl2) and 1 μCi per well γ-P^33-adenosine triphosphate (γ-P^33-ATP), 5.0 nM PI3Ka human recombinant enzyme, 0.2 mM palmitoyl-oleoyl phosphatidylserine (POPS), 0.04 mM phosphatidylinositol (4,5)bisphosphate (PIP2), 4% DMSO and serial dilutions of compound (diluted 1:3 from 20,000 to 1 nM). Incubate at RT for 90 min after adding PI3Ka. Stop the reaction with the addition of 40 μL of a stopping buffer containing 2.5 mg/mL neomycin linked beads (Amersham, Cat# RPNQ0506) and 21 mM ethylenediaminetetraacetic acid (EDTA). Centrifuge plates for 30 min at 1000 revolutions per minute (RPM) and count radioactivity with a Wallac Microbeta Trilux normalized for P^33. […]
Sequence of PI3Ka (P42336 whole entry): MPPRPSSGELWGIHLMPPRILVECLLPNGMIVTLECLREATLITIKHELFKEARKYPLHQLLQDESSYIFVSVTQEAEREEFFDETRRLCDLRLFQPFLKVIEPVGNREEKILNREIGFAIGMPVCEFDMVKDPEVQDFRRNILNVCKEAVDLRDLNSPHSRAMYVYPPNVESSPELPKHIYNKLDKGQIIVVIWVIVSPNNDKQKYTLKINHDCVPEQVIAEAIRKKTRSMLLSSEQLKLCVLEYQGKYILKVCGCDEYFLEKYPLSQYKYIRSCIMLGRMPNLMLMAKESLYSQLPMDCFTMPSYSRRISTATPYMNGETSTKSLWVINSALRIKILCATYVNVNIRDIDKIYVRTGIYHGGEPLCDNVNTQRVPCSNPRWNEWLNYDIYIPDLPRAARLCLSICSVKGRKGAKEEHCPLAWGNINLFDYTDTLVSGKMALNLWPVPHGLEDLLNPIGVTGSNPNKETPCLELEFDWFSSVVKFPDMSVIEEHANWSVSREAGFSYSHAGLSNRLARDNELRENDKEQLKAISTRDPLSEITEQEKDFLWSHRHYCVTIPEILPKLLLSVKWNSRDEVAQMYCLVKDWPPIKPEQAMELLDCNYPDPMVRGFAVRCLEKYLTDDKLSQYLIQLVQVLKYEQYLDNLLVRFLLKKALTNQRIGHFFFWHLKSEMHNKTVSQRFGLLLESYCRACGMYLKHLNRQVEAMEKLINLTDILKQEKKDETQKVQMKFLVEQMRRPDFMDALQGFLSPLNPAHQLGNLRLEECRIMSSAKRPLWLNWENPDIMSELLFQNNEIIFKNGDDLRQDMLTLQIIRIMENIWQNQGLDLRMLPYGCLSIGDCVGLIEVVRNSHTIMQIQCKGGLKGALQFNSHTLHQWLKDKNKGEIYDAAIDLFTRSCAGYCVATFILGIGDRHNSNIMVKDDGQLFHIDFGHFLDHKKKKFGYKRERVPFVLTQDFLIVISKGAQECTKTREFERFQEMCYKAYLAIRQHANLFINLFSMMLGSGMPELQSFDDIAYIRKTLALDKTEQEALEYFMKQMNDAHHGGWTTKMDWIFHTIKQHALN
Sequence of PI3Ka (P27986 whole entry partner): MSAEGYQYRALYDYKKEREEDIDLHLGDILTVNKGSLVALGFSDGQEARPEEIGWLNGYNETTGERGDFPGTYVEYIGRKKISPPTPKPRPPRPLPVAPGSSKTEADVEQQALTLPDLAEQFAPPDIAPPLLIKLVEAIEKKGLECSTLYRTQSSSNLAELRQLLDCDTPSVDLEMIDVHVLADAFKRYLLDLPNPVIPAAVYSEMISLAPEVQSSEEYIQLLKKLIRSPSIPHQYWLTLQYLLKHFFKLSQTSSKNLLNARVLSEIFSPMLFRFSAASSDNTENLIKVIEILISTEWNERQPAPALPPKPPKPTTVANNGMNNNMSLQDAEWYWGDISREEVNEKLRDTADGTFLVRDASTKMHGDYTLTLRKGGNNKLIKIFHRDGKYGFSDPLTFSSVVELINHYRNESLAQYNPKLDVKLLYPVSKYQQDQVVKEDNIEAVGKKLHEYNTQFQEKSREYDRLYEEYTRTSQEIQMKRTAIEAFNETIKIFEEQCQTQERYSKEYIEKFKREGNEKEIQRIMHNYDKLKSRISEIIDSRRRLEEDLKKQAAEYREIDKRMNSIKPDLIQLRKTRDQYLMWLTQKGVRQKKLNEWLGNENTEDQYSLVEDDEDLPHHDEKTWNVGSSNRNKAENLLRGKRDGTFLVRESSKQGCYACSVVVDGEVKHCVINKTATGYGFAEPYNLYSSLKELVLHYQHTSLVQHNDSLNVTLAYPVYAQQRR

In data set [6] the test system is GXF 209 human tumor xenograft cells. Briefly: Oncotest tumor clonogenic assay, GXF 209. In kind it is cell-based. The settings on record: colony formation, Gastric GXF 209, signet-ring cell carcinoma, ud, read-out: Absolute IC50.
Data set [7] has as its system OVXF 550 human tumor xenograft cells. The data set can be described thus: Oncotest tumor clonogenic assay, OVXF 550. Format: cell-based. The settings on record: colony formation, Ovary OVXF 550, carcinoma, read-out: Absolute IC50.

Take `CO[C@@H](C)Cn1c(=O)n(C)c2cnc3ccc(-c4cncc(C(C)(C)O)c4)cc3c21` [Example 1, 8-[5-(1-Hydroxy-1-methylethyl)pyridin-3-yl]-1-[(2S)-2-methoxypropyl]-3-methyl-1,3-dihydro-2H-imidazo[4,5-c]quinolin-2-one]: the IC50 was 55 nM in data set [1]; 7 nM in data set [3]; 185 nM in data set [4]; 269 nM in data set [5]; 6.07 nM on PI3Ka; 184 nM in data set [6]. Besides, the IC50 in data set [7] was determined as 28 nM. Besides, the AUC in data set [2] (1 mg/kg, 10 animals) came out at 1160 ng·h/mL; in data set [2] (3 mg/kg, 10 animals), 3780 ng·h/mL; in data set [2] (4.5 mg/kg, 2 animals) it was 5920 ng·h/mL; in data set [2] (6 mg/kg, 2 animals), 9620 ng·h/mL; in data set [2] (9 mg/kg, 2 animals) it was 10800 ng·h/mL; in data set [2] (12 mg/kg, 2 animals), 19200 ng·h/mL. In addition, the “correlation of determination R^2, linear regression of the mean AUC values for each dose” value in data set [2] (oral, 1 to 12 mg/kg) was 0.96.
